We go through four compounds from PMC9394307, “Discovery of Putative Dual Inhibitor of Tubulin and EGFR by Phenotypic Approach on LASSBio-1586 Homologs” (Pharmaceuticals, 2022).

Read-outs that look alike come from different tables or passages of the source.

Series [1] has as its system HL-60. The series can be described thus: MTT cell viability assay, HL-60. Type of series: cell-based, human. Particulars: MTT, value (95% CI), read-out: CC50 (µM) (CI) HL-60. Here is the method: (§1) The cytotoxic activity of compounds 3–13 was determined based on an MTT assay against different human tumor cell lines, using LASSBio-1586 (2), LASSBio-1735 (3), CA-4 (1) and pelitinib as standards (Table 2). To determine the cytotoxic selectivity index, compounds were also evaluated toward human lymphocytes (Table 3).
(§2) The target compounds were tested (0.0001–100 µM) for cytotoxic activity against selected human cancer cell lines, such as HL-60 (acute promyelocytic leukemia), MCF-7 (mammary adenocarcinoma), PC-3 (prostate adenocarcinoma), H1975 (non-small cell lung cancer—EGFR^L858R+T790M), PC-9 (non-small cell lung cancer—EGFR^L858R) H292 (mucoepidermoid pulmonary carcinoma—EGFR wild type), LoVo (colorectal adenocarcinoma—EGFRwild type) and GM16000 (lymphocyte). All the human cancer cell lines were purchased from Cell Bank of Rio de Janeiro—BCRJ. They were cultured in RPMI 1640 medium with 10% (v/v) FBS, 2 mM glutamine, at 37 °C in a humidified incubator containing 5% CO2.
(§3) The cytotoxicity of the compounds was evaluated by the MTT assay. […] For lymphocytic lines, a density of 0.3 × 10^6 cells/mL was used. Afterwards they were treated with varying concentrations of the target compounds 2–12 (0.0001–100 µM), CA-4 (1) and pelitinib at 37 °C, in triplicate. The medium was incubated with 20 μL of 5 mg/mL MTT solution for 3 h in a humidified incubator containing 5% CO2 [11].
(§4) The purple-colored formazan crystals formed in the wells were dissolved in DMSO and their absorbance was measured at 595 nm with a microplate reader (SpectraMax M5, Molecular Devices).
In general terms: Tetrazolium assays rely on reduction of a dye to a coloured formazan, in cell work by metabolically active cells.

In a further series the test system is H1975. The series can be described thus: MTT cell viability assay, H1975. Type of series: cell-based, human. Conditions: Homo sapiens, MTT, value (95% CI), read-out: CC50 (µM) (CI) H1975. The protocol: as §1, §2, §3, §4
A further series deals with H1975 cells. The series can be described thus: Cell cycle analysis by flow cytometry (Guava Muse Cell Cycle Kit). Type of series: cell-based, human. Conditions: H1975, 48 h of treatment; CA-4 0.04 µM, LASSBio-1586 2.0 µM, LASSBio-1735 0.08 µM, LASSBio-2070 3.0 µM, LASSBio-2074 1.5 µM; vs DMSO 0.1%. The protocol:
Changes in the cell cycle are important aspect in tumorigenesis. Therefore, the identification of the steps related to inhibition of cell multiplication is an important process during the discovery of new antitumoral drug candidates. […] Flow cytometry was used for cell cycle analysis to estimate the percentages of a cell population in the different phases of the cell cycle. The analysis was performed using the lung cancer cell line H1975 treated with CA-4 (1, 0.04 µM), LASSBio-1586 (2, 2.0 µM), LASSBio-1735 (3, 0.08 µM), LASSBio-2070 (10, 3.0 µM) and LASSBio-2074 (11, 1.5 µM).
(§5) Flow cytometry was applied to help elucidate the mechanism of action of the studied compounds, both to verify the cell cycle phase and to verify the action on EGFR protein kinase.
The anti-tubulin effect was evaluated by seeding H1975, H292 and PC-9 into 6-well plates at a density of 2 × 10^5 per well. […] Cells were harvested and stained according to the protocols of The Guava Muse® Cell Cycle Kit (MCH100106) to quantitatively measure the percentage of cells in the G2/M phases of the cell cycle and the EGFR-RTK Activation Dual Detection Kit (MCH200102) (Luminex®) to measure EGFR phosphorylation in relation to total EGFR expression in the cell population, according to the manufacturer’s instructions for use in test kits using a Guava Muse® Cell Analyzer (Luminex®). Each experiment was performed at least three times independently.

For series [2], the system named is HL-60. On the set-up: method as in PMID 24614859. Conditions: cited from earlier work.
Series [3] concerns EGFR in PC-9 cell line (EGFR^L858R). The series can be described thus: Guava Muse EGFR-RTK Activation Dual Detection Kit, flow cytometry. It is filed as cell-based, human. Conditions: PC-9, LASSBio-2070 0.03 µM. The protocol: as §5
The anti-tubulin effect was evaluated by seeding H1975, H292 and PC-9 into 6-well plates at a density of 2 × 10^5 per well. The cells were treated with the selected compounds for 72 h. Cells were harvested and stained according to the protocols of The Guava Muse® Cell Cycle Kit (MCH100106) to quantitatively measure the percentage of cells in the G2/M phases of the cell cycle and the EGFR-RTK Activation Dual Detection Kit (MCH200102) (Luminex®) to measure EGFR phosphorylation in relation to total EGFR expression in the cell population, according to the manufacturer’s instructions for use in test kits using a Guava Muse® Cell Analyzer (Luminex®). Each experiment was performed at least three times independently.
On the technique in general: Flow cytometry measures light scatter and fluorescence of single cells or particles in a stream.

Another series has as its system SF-295. On the set-up: method as in PMID 24614859, PMID 30006065, PMID 25564377. Particulars: cited from earlier work.
For the next series, the system named is HCT-116. On the set-up: method as in PMID 24614859, PMID 30006065, PMID 25564377. Conditions: cited from earlier work.
Another series deals with β-tubulin. On the set-up: method as in PMID 24614859, PMID 30006065, PMID 25564377. Conditions: cited from earlier work.
[4] abbreviates: Homo sapiens, HL-60, 48 h, 48 h.
Setting [5] is: Homo sapiens, HL-60, 72 h, 72 h.

As usually defined, the CC50 is the concentration at which the toxic effect on the cells reaches its halfway point. `COc1cc(C(=O)N(C)/N=C/c2ccccc2)cc(OC)c1OC` [LASSBio-1735 (3), (E)-N’-benzylidene-3,4,5-trimethoxy-N-methylbenzohydrazide]: the CC50 in the series on HL-60 [1] (setting [4]) was 8.77 µM; with HL-60 [1] (setting [5]), 0.039 µM; with H1975 (NCI-H1975, 48 h, 48 h) it was 0.096 µM; in the series with H1975 (NCI-H1975, 72 h, 72 h), 0.079 µM. Further, the “cell cycle distribution (G0/G1, S, G2/M)” value in the series with H1975 cells is on record as “increased cells in phase G2/M”. For the same compound, in the series on HL-60 [2], the “cytotoxic potency against HL-60 compared with LASSBio-1586 (2)” value is given as “cytotoxic potency superior to LASSBio-1586 (2)”.
As to `COc1cc(C(=O)N(Cc2ccccc2)/N=C/c2ccccc2)cc(OC)c1OC` [LASSBio-2070 (10), (E)-N-benzyl-N’-benzylidene-3,4,5-trimethoxybenzohydrazide], the CC50 worked out at 6.29 µM in the series with HL-60 [1] (setting [4]); 0.172 µM with HL-60 [1] (setting [5]); 0.903 µM in the series on H1975 (NCI-H1975, 48 h, 48 h); 2.79 µM in the series with H1975 (NCI-H1975, 72 h, 72 h). Moreover, the “cell cycle distribution (G0/G1, S, G2/M)” value in the series with H1975 cells was “increased cells in phase G2/M”. Moreover, the “modulation of EGFR activity in a phenotypic model” value in series [3] is on record as “inhibiting the phosphorylation of EGFR”.
In the case of `COc1cc(C(=O)N/N=C/c2ccccc2)cc(OC)c1OC` [LASSBio-1586 (2), (E)-N’-benzylidene-3,4,5-trimetoxybenzohydrazide], the CC50 with HL-60 [1] (setting [4]) stood at 3.59 µM; with HL-60 [1] (setting [5]), 2.08 µM; with HL-60 [1] (72 h), 2.13 µM; with H1975 (NCI-H1975, 48 h, 48 h), 2.02 µM; in the series with H1975 (NCI-H1975, 72 h, 72 h), 1.57 µM. Besides, the “cell cycle distribution (G0/G1, S, G2/M)” value in the series with H1975 cells is recorded as “increased cells in phase G2/M”. In addition, in the series with SF-295, the “proliferation of SF-295 in the Hollow Fiber Assay” value is listed as “able to decrease proliferation”. Also, the “proliferation of HCT-116 in the Hollow Fiber Assay” value in the series with HCT-116 is listed as “able to decrease proliferation”. For the same compound, the “ability to inhibit β-tubulin” value with β-tubulin is “confirmed”.
As to `CCOC(=O)CN(/N=C/c1ccccc1)C(=O)c1cc(OC)c(OC)c(OC)c1` [LASSBio-2074 (11), Ethyl (E)-N-(benzylideneamino)-N-(3,4,5-trimethoxybenzoyl)glycinate], the CC50 in the series on HL-60 [1] (setting [4]) is 5.69 µM; in the series with HL-60 [1] (setting [5]), 0.126 µM; in the series with H1975 (NCI-H1975, 48 h, 48 h) it was 4.83 µM; with H1975 (NCI-H1975, 72 h, 72 h) it was 1.2 µM. Further, the “cell cycle distribution (G0/G1, S, G2/M)” value with H1975 cells is recorded as “increased cells in phase G2/M”.
